What was measured:
[1] = test system: human lymphoblast cell line (CEM); assay: In vitro cell proliferation assay (SRB), CEM; assay type: cell-based; details: 72 h, mean ± S.D.
Experimental: (§1) The cell proliferation assay was performed in 96-well plates as described previously. A panel of four cancer cell lines of different tissues of origins, namely: human lung adenocarcinoma epithelial cell line (A549), human lymphoblast cell line (CEM), human cervix cell line (HeLa) and human breast epithelial cell line (MCF-7) were studied. These cell lines were obtained from the National Repository of Animal Cell Culture, National Centre for Cell Sciences, Pune (NCCS), India. Briefly, 2 x10^3 cells were seeded in each well and were incubated with gradient concentrations of 5a, 6a-j compounds for 72 h. The cells were then fixed with 50% trichloroacetic acid and stained with 0.4% sulforhodamine B (SRB) dissolved in 1% acetic acid. Cells were then washed with1% acetic acid to remove excess (unbound) SRB. The protein-bound SRB was dissolved with 10 mM Tris base and the absorbance at 564 nm was determined using a SPECTRAmax PLUS 384 microplate spectrophotometer.

[2] = test system: human cervix cell line (HeLa); assay: In vitro cell proliferation assay (SRB), HeLa; assay type: cell-based; details: 72 h, mean ± S.D.
Experimental: as §1

[3] = test system: human lung adenocarcinoma epithelial cell line (A549); assay: In vitro cell proliferation assay (SRB), A549; assay type: cell-based; details: 72 h, mean ± S.D.
Experimental: as §1

[4] = test system: human breast epithelial cell line (MCF-7); assay: In vitro cell proliferation assay (SRB), MCF-7; assay type: cell-based; details: MCF7, 72 h, mean ± S.D.
Experimental: as §1

MCF-7 cells = assay: Cell cycle analysis by flow cytometry (propidium iodide); assay type: cell-based, human; details: MCF-7, 25 µM
Experimental: The flow cytometric evaluation of the cell cycle status was performed as described previously. Briefly, cells (2 x 10^6) treated with the noscapinoids up to 72 h were centrifuged, washed twice with cold PBS, and fixed in 70% ethanol. Tubes containing the cell pellets were stored at 4 °C for minimum of 24 h. Cells were then centrifuged at 1000 x g for 10 min and the supernatant was discarded. The pellets were washed twice with 5 ml of PBS and then stained with 0.5 ml of propidium iodide (0.1% of Pl + 0.6% Triton-X in PBS) and 0.5 ml of RNase A (2 mg/ml) for 45 minutes in dark. Samples were then analyzed on a FACS Calibur flow cytometer ([…]).

tubulin = biological target: T1, tubulin (Bos taurus, UniProt P81947+Q6B856); assay: Tubulin binding assay (quenching of intrinsic tryptophan fluorescence); design: species or system bovine; details: for Kd: 2 µM tubulin, PEM buffer pH 6.8, 37 °C, 45 min, mean ± S.D.; for Experimental ΔGbind: calculated from KD, ΔGbind = RT ln KD, T = 298 K
T1 construct: Tubulin devoid of microtubule-associated proteins (MAPs) was purified from bovine brain; from tissue; host or cells: bovine brain
Experimental: Tubulin devoid of microtubule-associated proteins (MAPs) was purified from bovine brain by cycles of temperature-dependent polymerization and depolymerization as described previously followed by phosphocellulose chromatography. The concentration of the tubulin was determined by the method of Bradford using BSA as the standard. Purified tubulin was quickly frozen as drops in liquid nitrogen and stored at - 80 °C until used.
Noscapinoids quench the […] intrinsic tryptophan fluorescence of tubulin in a concentration-dependent fashion as described previously. This has allowed an easy method for measuring the tubulin-noscapinoids interactions. Briefly, the compounds 5a, 6a-j (0-200 µM) were incubated with 2 µM tubulin in PEM buffer (100 mM PIPES, pH 6.8, 3 mM MgSO4, and 1 mM EGTA) at 37 °C for 45 min. After incubation, the samples were excited at 295 nm. The relative intrinsic fluorescence intensity of the tubulin was then monitored in the absence and presence of the compound 5a, 6a-j using a Varian Cary Eclipse Fluorescence Spectrophotometer (Agilent Technologies, CA, USA). The emission readings were recorded at 335 nm. We used a 0.3 cm path-length cuvette to minimize the inner filter effects caused by the absorbance of the noscapinoids. In addition, the inner filter effects were corrected using a formula F corrected = F observed·antilog [(A ex + A em)/2], where A ex is the absorbance at the excitation wavelength and A em is the absorbance at the emission wavelength. The equilibrium dissociation constant (KD) was determined by the formula: 1/a = KD/[free ligand] + 1, where a is the fractional occupancy and [free ligand] is the concentration of free ligand. The fractional occupancy (a) was determined by the formula a = ΔF/ΔF max, where ΔF is the change in fluorescence intensity when tubulin and its ligand are in equilibrium and ΔF max is the value of maximum fluorescence change when tubulin is completely bound with its ligand. ΔF max was calculated by plotting 1/ΔF versus 1/ligand, using total ligand concentration as the first estimate of free ligand concentration. Three independent experiments were performed for each noscapinoid.

T1 sequence (Q6B856 whole entry): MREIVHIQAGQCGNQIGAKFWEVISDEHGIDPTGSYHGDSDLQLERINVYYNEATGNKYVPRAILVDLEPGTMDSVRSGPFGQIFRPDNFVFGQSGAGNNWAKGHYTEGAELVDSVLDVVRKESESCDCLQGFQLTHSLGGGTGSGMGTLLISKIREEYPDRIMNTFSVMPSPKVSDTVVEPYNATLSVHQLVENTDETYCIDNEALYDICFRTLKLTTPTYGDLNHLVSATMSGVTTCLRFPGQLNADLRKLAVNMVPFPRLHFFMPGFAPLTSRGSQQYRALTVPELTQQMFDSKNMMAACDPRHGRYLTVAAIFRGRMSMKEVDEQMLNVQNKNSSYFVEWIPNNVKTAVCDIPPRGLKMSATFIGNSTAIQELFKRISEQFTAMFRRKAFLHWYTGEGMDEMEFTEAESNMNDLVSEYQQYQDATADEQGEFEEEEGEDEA
T1 sequence (P81947 whole entry): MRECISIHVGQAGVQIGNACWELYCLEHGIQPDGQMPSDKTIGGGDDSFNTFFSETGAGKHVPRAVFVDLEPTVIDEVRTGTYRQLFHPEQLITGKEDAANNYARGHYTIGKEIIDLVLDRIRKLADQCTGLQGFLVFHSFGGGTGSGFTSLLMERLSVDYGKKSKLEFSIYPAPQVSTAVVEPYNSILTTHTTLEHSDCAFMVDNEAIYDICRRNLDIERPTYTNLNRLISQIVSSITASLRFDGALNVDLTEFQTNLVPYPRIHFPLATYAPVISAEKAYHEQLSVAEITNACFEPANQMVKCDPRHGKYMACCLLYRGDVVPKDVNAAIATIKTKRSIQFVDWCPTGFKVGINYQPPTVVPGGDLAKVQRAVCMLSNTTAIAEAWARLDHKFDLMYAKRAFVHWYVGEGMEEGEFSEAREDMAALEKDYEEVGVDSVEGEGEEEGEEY

Row | SMILES | IC50 [2] [µM] | IC50 [3] [µM] | IC50 [4] [µM] | melting point [°C] | Kd (tubulin) [µM] | Experimental ΔGbind (tubulin) [kcal/mol] | IC50 [1] [µM] | Cell cycle parameters % G0/G1, 24 hours (MCF-7 cells) [%] | Cell cycle parameters % G2/M, 24 hours (MCF-7 cells) [%] | Cell cycle parameters % S, 24 hours (MCF-7 cells) [%] | Cell cycle parameters % Sub-G1, 24 hours (MCF-7 cells) [%] | Cell cycle parameters % G0/G1, 72 hours (MCF-7 cells) [%] | Cell cycle parameters % G2/M, 72 hours (MCF-7 cells) [%] | Cell cycle parameters % S, 72 hours (MCF-7 cells) [%] | Cell cycle parameters % Sub-G1, 72 hours (MCF-7 cells) [%]
1 | COc1ccc2c(c1OC)C(=O)O[C@@H]2[C@H]1c2c(cc3c(c2OC)OCO3)CCN1CC(C)=O [Compound 6h, (S)-6,7-dimethoxy-3-((R)-4-methoxy-6-(2-oxopropyl)-5,6,7,8-tetrahydro-[1,3]dioxolo[4,5-g]isoquinolin-5-yl) isobenzofuran-1(3H)-one] | 15.8 ± 0.5 | 28 ± 1.5 | 25.3 ± 1.2 | 179 |  |  | 6.9 ± 0.5 | 12.25 | 68.58 | 5.92 | 11.37 | 7.19 | 36.18 | 6.28 | 48.73
2 | COc1ccc2c(c1OC)C(=O)O[C@@H]2[C@H]1c2c(cc3c(c2OC)OCO3)CCN1Cc1ccc(Br)cc1 [Compound 6b, 5(S)-3-((R)-6-(4-bromobenzyl)-4-methoxy-5,6,7,8-tetrahydro-[1,3]dioxolo[4,5-g]isoquinolin-5-yl)-6,7-dimethoxyisobenzofuran-1(3H)-one] | 21.2 ± 2.1 | 42.4 ± 2.3 | 34.1 ± 1.6 | 76 |  |  | 9 ± 0.4 | 19.42 | 64.42 | 4.16 | 7.37 | 11.38 | 35.84 | 7.53 | 43.18
3 | CCOC(=O)CN1CCc2cc3c(c(OC)c2[C@@H]1[C@H]1OC(=O)c2c1ccc(OC)c2OC)OCO3 [Compound 6j, Ethyl 2-((R)-5-((S)-4,5-dimethoxy-3-oxo-1,3-dihydroisobenzofuran-1-yl)-4-methoxy-7,8-dihydro-[1,3]dioxolo[4,5-g]isoquinolin-6(5H)-yl)acetate] | 32.4 ± 2.4 | 72.3 ± 3.5 | 52.6 ± 3.8 | 92 | 228 ± 10 | -4.973 | 13.6 ± 1.3 | 25.71 | 66.17 | 3.09 | 8.29 | 22.16 | 39.48 | 8.63 | 27.24
4 | COc1ccc2c(c1OC)C(=O)O[C@@H]2[C@@H]1NCCc2cc3c(c(OC)c21)OCO3 [Compound 5a, (S)-6,7-dimethoxy-3-((R)-4-methoxy-5,6,7,8-tetrahydro[1,3]dioxolo[4,5-g]isoquinolin-5-yl)isobenzofuran-1(3H)-one] | 20.9 ± 1.8 | 41.6 ± 2.1 | 33.6 ± 1.3 |  | 68 ± 0.7 | -5.691 | 8.9 ± 0.6 | 13.47 | 66.37 | 4.08 | 8.46 | 10.74 | 39.25 | 7.08 | 41.57
5 | COc1ccc2c(c1OC)C(=O)O[C@@H]2[C@H]1c2c(cc3c(c2OC)OCO3)CCN1Cc1ccccc1 [Compound 6a, (S)-3-((R)-6-benzyl-4-methoxy-5,6,7,8-tetrahydro-[1,3]dioxolo[4,5-g]isoquinolin-5-yl)-6,7-dimethoxyisobenzofuran-1(3H)-one] | 19.4 ± 1.4 | 37.7 ± 1.8 | 31.2 ± 1.5 | 64 |  |  | 8.3 ± 0.4 | 16.28 | 63.18 | 4.94 | 8.12 | 9.06 | 37.72 | 7.39 | 44.82

Now from value to compound, other results behind:

Row | IC50 [2] [µM] | IC50 [3] [µM] | IC50 [4] [µM] | melting point [°C] | Kd (tubulin) [µM] | Experimental ΔGbind (tubulin) [kcal/mol] | SMILES | IC50 [1] [µM] | Cell cycle parameters % G0/G1, 24 hours (MCF-7 cells) [%] | Cell cycle parameters % G2/M, 24 hours (MCF-7 cells) [%] | Cell cycle parameters % S, 24 hours (MCF-7 cells) [%] | Cell cycle parameters % Sub-G1, 24 hours (MCF-7 cells) [%] | Cell cycle parameters % G0/G1, 72 hours (MCF-7 cells) [%] | Cell cycle parameters % G2/M, 72 hours (MCF-7 cells) [%] | Cell cycle parameters % S, 72 hours (MCF-7 cells) [%] | Cell cycle parameters % Sub-G1, 72 hours (MCF-7 cells) [%]
6 | 28.3 ± 2.1 | 61.3 ± 3.1 | 45.8 ± 2.2 | 60 |  |  | COc1cccc(CN2CCc3cc4c(c(OC)c3[C@@H]2[C@H]2OC(=O)c3c2ccc(OC)c3OC)OCO4)c1 [Compound 6g, (S)-6,7-dimethoxy-3-((R)-4-methoxy-6-(3-methoxybenzyl)-5,6,7,8-tetrahydro-[1,3]dioxolo[4,5-g]isoquinolin-5-yl) isobenzofuran-1(3H)-one] | 11.9 ± 0.8 | 20.94 | 62.28 | 4.08 | 10.86 | 12.76 | 37.93 | 8.07 | 40.29
7 | 17.9 ± 0.9 | 33.5 ± 1.7 | 28.7 ± 0.8 | 66 |  |  | COc1ccc(CN2CCc3cc4c(c(OC)c3[C@@H]2[C@H]2OC(=O)c3c2ccc(OC)c3OC)OCO4)cc1 [Compound 6d, (S)-6,7-dimethoxy-3-((R)-4-methoxy-6-(4-methoxybenzyl)-5,6,7,8-tetrahydro[1,3]dioxolo[4,5-g]isoquinolin-5-yl)isobenzofuran-1(3H)-one] | 7.7 ± 0.3 | 22.73 | 59.41 | 4.62 | 7.27 | 8.29 | 36.18 | 7.83 | 45.38
8 | 17.3 ± 0.7 | 32.1 ± 1.6 | 27.8 ± 1.3 | 62 |  |  | COc1ccc2c(c1OC)C(=O)O[C@@H]2[C@H]1c2c(cc3c(c2OC)OCO3)CCN1Cc1cccc(Cl)c1 [Compound 6e, (S)-3-((R)-6-(3-chlorobenzyl)-4-methoxy-5,6,7,8-tetrahydro-[1,3]dioxolo[4,5-g]isoquinolin-5-yl)-6,7-dimethoxyisobenzofuran-1(3H)-one] | 7.5 ± 0.6 | 12.84 | 68.42 | 4.57 | 8.17 | 7.02 | 38.52 | 6.83 | 45.42

— article PMC3804772, “Rational Design, Synthesis, and Biological Evaluation of Third Generation α-Noscapine Analogues as Potent Tubulin Binding Anti-Cancer Agents” (PLoS ONE, 2013)
